Measurements: US7704995B2 (Exelixis, Inc., priority 2003, dated 2010)

Target: T1, Chk1 (Homo sapiens, UniProt O14757)
T1 construct: purchased Upstate Biotechnology
T1 sequence (O14757 1-476): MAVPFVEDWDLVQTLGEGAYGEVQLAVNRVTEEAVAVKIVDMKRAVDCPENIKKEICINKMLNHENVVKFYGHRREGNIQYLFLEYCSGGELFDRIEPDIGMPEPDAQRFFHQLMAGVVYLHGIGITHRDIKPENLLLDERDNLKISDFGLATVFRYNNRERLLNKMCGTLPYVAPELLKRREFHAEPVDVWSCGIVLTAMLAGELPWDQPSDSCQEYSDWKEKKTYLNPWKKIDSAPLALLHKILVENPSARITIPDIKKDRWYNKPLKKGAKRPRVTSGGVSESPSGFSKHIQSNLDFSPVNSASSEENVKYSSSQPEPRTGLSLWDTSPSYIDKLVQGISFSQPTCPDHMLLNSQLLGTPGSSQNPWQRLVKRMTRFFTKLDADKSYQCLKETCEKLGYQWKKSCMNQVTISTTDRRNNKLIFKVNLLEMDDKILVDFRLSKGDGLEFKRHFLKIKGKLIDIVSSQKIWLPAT
Test: Chk1 kinase assay: incorporation of γ-33P ATP into immobilized myelin basic protein
Type: biochemical
Conditions: Table 11, Chk1 only; class symbols A-D; read-out: Chk1 IC50
Summary of the method: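 Read-out is scintillation counting of 33P incorporated into plate-bound myelin basic protein. Chk1 runs at 10 nM enzyme with 10 μM ATP, Chk2 at 20 nM with 30 μM ATP, each for 1 hour at room temperature. Duplicate points; IC50 taken as 50% activity reduction, Ki computed from IC50.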

| IC50 [nM] | Compound |
| --- | --- |
| < 50 | Nc1ncc(-c2cccc(C(=O)NCc3cccc(C(F)(F)F)c3F)c2)nc1C(=O)N[C@H]1CCCNC1 [Example 874, 3-amino-6-{3-[({[2-fluoro-3-(trifluoromethyl)phenyl]methyl}amino)carbonyl]phenyl}-N-[(3S)-piperidin-3-yl]pyrazine-2-carboxamide] |
| < 50 | COc1ccc(NC(=O)NCc2cccc(-c3cnc(N)c(C(=O)N[C@H]4CCCNC4)n3)c2)cc1 [Example 957, 3-amino-6-(3-{[({[4-(methyloxy)phenyl]amino}carbonyl)amino]methyl}phenyl)-N-[(3S)-piperidin-3-yl]pyrazine-2-carboxamide] |
| < 50 | Nc1ncc(-c2cccc(C(=O)NCc3ccc4c(c3)OCO4)c2)nc1C(=O)N[C@H]1CCCNC1 [Example 853, 3-amino-6-(3-{[(1,3-benzodioxol-5-ylmethyl)amino]carbonyl}phenyl)-N-[(3S)-piperidin-3-yl]pyrazine-2-carboxamide] |
| < 50 | Nc1ncc(-c2cccc(CNC(=O)c3ccno3)c2)nc1C(=O)N[C@H]1CCCNC1 [Example 990, 3-amino-6-(3-{[(isoxazol-5-ylcarbonyl)amino]methyl}phenyl)-N-[(3S)-piperidin-3-yl]pyrazine-2-carboxamide] |
| 50 to 1000 | Nc1ncc(-c2cccc(CNS(=O)(=O)c3ccccc3OC(F)(F)F)c2)nc1C(=O)N[C@H]1CCCNC1 [Example 917, 3-amino-N-[(3S)-piperidin-3-yl]-6-(3-{[({2-[(trifluoromethyl)oxy]phenyl}sulfonyl)amino]methyl}phenyl)pyrazine-2-carboxamide] |
| < 50 | Nc1ncc(-c2cccc(C(=O)N[C@@H]3c4ccccc4C[C@@H]3O)c2)nc1C(=O)N[C@H]1CCCNC1 [Example 807, 3-amino-6-[3-({[(1R,2S)-2-hydroxy-2,3-dihydro-1H-inden-1-yl]amino}carbonyl)phenyl]-N-[(3S)-piperidin-3-yl]pyrazine-2-carboxamide] |

Same assay, conditions: Table 11; Chk1 only; read-out: Chk1 IC50

| Compound | IC50 [nM] |
| --- | --- |
| COc1cccc(-c2nnc(-c3nc(-c4cccc(CO)c4)cnc3N)[nH]2)c1 [Example 571, [3-(5-amino-6-{5-[3-(methyloxy)phenyl]-4H-1,2,4-triazol-3-yl}pyrazin-2-yl)phenyl]methanol] | ≥ 10000 |
| CCN1CC[C@H](NC(=O)c2nc(-c3cccc(C(=O)N[C@@H]4c5ccccc5C[C@@H]4O)c3)cnc2N)C1 [Example 731, 3-amino-N-[(3S)-1-ethylpyrrolidin-3-yl]-6-[3-({[(1R,2S)-2-hydroxy-2,3-dihydro-1H-inden-1-yl]amino}carbonyl)phenyl]pyrazine-2-carboxamide] | 50 to 1000 |
| CC(C)(C)OC(=O)N1CC[C@H](NC(=O)c2nc(-c3cccc(C(=O)NC4CCOc5ccccc54)c3)cnc2N)C1 (stereo partly drawn) [Example 759, 1,1-dimethylethyl (3S)-3-{[(3-amino-6-{3-[(3,4-dihydro-2H-chromen-4-ylamino)carbonyl]phenyl}pyrazin-2-yl)carbonyl]amino}pyrrolidine-1-carboxylate] | 1000 to 10000 |
| Nc1ncc(-c2cccc(CN[C@H]3CCc4ccccc43)c2)nc1-c1nc([C@@H]2CCCNC2)n[nH]1 [Example 705, 5-(3-{[(1S)-2,3-dihydro-1H-inden-1-ylamino]methyl}phenyl)-3-{3-[(3R)-piperidin-3-yl]-1H-1,2,4-triazol-5-yl}pyrazin-2-amine] | < 50 |
| N=C(NNc1nc2ccccc2s1)c1nc(-c2cccc(C(=O)NCc3ccccc3)c2)cnc1N [Example 669, 3-{5-amino-6-[[2-(1,3-benzothiazol-2-yl)hydrazino](imino)methyl]pyrazin-2-yl}-N-(phenylmethyl)benzamide] | ≥ 10000 |

More lines, now with the values ahead:

| IC50 [nM] | Compound |
| --- | --- |
| 1000 to 10000 | CNC(=O)c1nc(-c2cccc(CNC3c4ccccc4-c4ccccc43)c2)cnc1N [Example 447, 3-amino-6-{3-[(9H-fluoren-9-ylamino)methyl]phenyl}-N-methylpyrazine-2-carboxamide] |
| ≥ 10000 | CN1CCN(C(=O)c2nc(-c3cccc(C(=O)NCc4ccccc4)c3)cnc2N)CC1 [Example 573, 3-{5-amino-6-[(4-methylpiperazin-1-yl)carbonyl]pyrazin-2-yl}-N-(phenylmethyl)benzamide] |
| 50 to 1000 | CNC(=O)c1nc(-c2ccc3ccnc(N[C@H]4CCc5ccccc54)c3c2)cnc1N [Example 525, 3-amino-6-{1-[(1S)-2,3-dihydro-1H-inden-1-ylamino]isoquinolin-7-yl}-N-methylpyrazine-2-carboxamide] |
| 50 to 1000 | CNC(=O)c1nc(-c2cccc(CNC3CCc4ccc(Cl)cc43)c2)cnc1N (stereo not drawn) [Example 485, 3-amino-6-(3-{[(6-chloro-2,3-dihydro-1H-inden-1-yl)amino]methyl}phenyl)-N-methylpyrazine-2-carboxamide] |
| < 50 | CNC(=O)c1nc(-c2cccc(CN[C@H]3CCc4ccccc4C3)c2)cnc1N [Example 454, 3-amino-N-methyl-6-(3-{[(2S)-1,2,3,4-tetrahydronaphthalen-2-ylamino]methyl}phenyl)pyrazine-2-carboxamide] |
| 50 to 1000 | CCN(Cc1ccccc1)Cc1cccc(-c2cnc(N)c(C(=O)NC)n2)c1 [Example 439, 3-amino-6-(3-{[ethyl(phenylmethyl)amino]methyl}phenyl)-N-methylpyrazine-2-carboxamide] |
| 50 to 1000 | CNC(=O)c1nc(-c2cccc(C(=O)NNc3ccccc3F)c2)cnc1N [Example 432, 3-amino-6-(3-{[2-(2-fluorophenyl)hydrazino]carbonyl}phenyl)-N-methylpyrazine-2-carboxamide] |
| 50 to 1000 | CCNC(=O)c1nc(-c2cccc(CN[C@H]3CCc4ccccc43)c2)cnc1N [Example 488, 3-amino-6-(3-{[(1S)-2,3-dihydro-1H-inden-1-ylamino]methyl}phenyl)-N-ethylpyrazine-2-carboxamide] |

Same assay, conditions: read-out: Chk1 IC50

| Compound | IC50 [nM] |
| --- | --- |
| CNC(=O)c1nc(-c2cccc(NC(=O)C3CCCC3)c2)cnc1N [Example 166, 3-amino-6-{3-[(cyclopentylcarbonyl)amino]phenyl}-N-methylpyrazine-2-carboxamide] | 50 to 1000 |
| CNC(=O)c1nc(-c2cccc(C(=O)N3CCN(C)CC3)c2)cnc1N [Example 93, 3-amino-N-methyl-6-{3-[(4-methylpiperazin-1-yl)carbonyl]phenyl}pyrazine-2-carboxamide] | 1000 to 10000 |
| CNC(=O)c1nc(-c2cccc(C(=O)NCc3ccc(Cl)c(C(F)(F)F)c3)c2)cnc1N [Example 229, 3-amino-6-{3-[({[4-chloro-3-(trifluoromethyl)phenyl]methyl}amino)carbonyl]phenyl}-N-methylpyrazine-2-carboxamide] | 50 to 1000 |
| NC(=O)c1nc(-c2cccc(F)c2)cnc1N [Example 19, 3-amino-6-(3-fluorophenyl)pyrazine-2-carboxamide] | ≥ 10000 |

Second part, the molecule after the results:

| IC50 [nM] | Compound |
| --- | --- |
| 50 to 1000 | CNC(=O)c1nc(-c2cccc(C(=O)NCc3ccc(OC)cc3OC)c2)cnc1N [Example 115, 3-amino-6-{3-[({[2,4-bis(methyloxy)phenyl]methyl}amino)carbonyl]phenyl}-N-methylpyrazine-2-carboxamide] |
| 50 to 1000 | CNC(=O)c1nc(-c2cccc(C(=O)NCc3ccc(Cl)cc3Cl)c2)cnc1N [Example 100, 3-amino-6-[3-({[(2,4-dichlorophenyl)methyl]amino}carbonyl)phenyl]-N-methylpyrazine-2-carboxamide] |
| 50 to 1000 | CNC(=O)c1nc(-c2cccc(C(=O)NCc3ccccc3N3CCOCC3)c2)cnc1N [Example 341, 3-amino-N-methyl-6-[3-({[(2-morpholin-4-ylphenyl)methyl]amino}carbonyl)phenyl]pyrazine-2-carboxamide] |
| 50 to 1000 | CNC(=O)c1nc(-c2cccc(C(=O)NCc3cccc(OC)c3)c2)cnc1N [Example 107, 3-amino-N-methyl-6-{3-[({[3-(methyloxy)phenyl]methyl}amino)carbonyl]phenyl}pyrazine-2-carboxamide] |
| < 50 | CNC(=O)c1nc(-c2cccc(CN[C@@H]3c4ccccc4C[C@@H]3O)c2)cnc1N [Example 421, 3-amino-6-[3-({[(1R,2S)-2-hydroxy-2,3-dihydro-1H-inden-1-yl]amino}methyl)phenyl]-N-methylpyrazine-2-carboxamide] |
| < 50 | CNC(=O)c1nc(-c2cccc(CNCc3cc(F)c(F)c(F)c3)c2)cnc1N [Example 419, 3-amino-N-methyl-6-[3-({[(3,4,5-trifluorophenyl)methyl]amino}methyl)phenyl]pyrazine-2-carboxamide] |
| < 50 | CNC(=O)c1nc(-c2cccc(C(=O)NCc3ccc(SC)cc3)c2)cnc1N [Example 216, 3-amino-N-methyl-6-{3-[({[4-(methylthio)phenyl]methyl}amino)carbonyl]phenyl}pyrazine-2-carboxamide] |
| 1000 to 10000 | CNC(=O)c1nc(-c2cccc(NC(=O)OCC3c4ccccc4-c4ccccc43)c2)cnc1N [Example 317, 9H-fluoren-9-ylmethyl (3-{5-amino-6-[(methylamino)carbonyl]pyrazin-2-yl}phenyl)carbamate] |
| 1000 to 10000 | CNC(=O)c1nc(-c2cccc(C(N)=O)c2)cnc1N [Example 85, 3-amino-6-[3-(aminocarbonyl)phenyl]-N-methylpyrazine-2-carboxamide] |
| ≥ 10000 | CNC(=O)c1nc(-c2noc(-c3ccccc3)n2)cnc1N [Example 69, 3-amino-N-methyl-6-(5-phenyl-1,2,4-oxadiazol-3-yl)pyrazine-2-carboxamide] |
